This note sets out measurements from article PMC8346002 (International Journal of Molecular Sciences, 2021).

“Also recorded” adds a separate entry of the source. Where two headings read alike, the source gives them in different places.

Series [1] concerns the target T1, cAMP receptor protein (CRP) (Escherichia coli, UniProt P0ACJ8).
T1 construct: inferred from pET21a(+) and Ni-NTA/imidazole purification); made in house; host or cells: E. coli BL21 (DE3), pET21a(+)
It counts as binding. Conditions: CRP 2 µM, 25 °C, 50 mM MOPS pH 7.5, excitation 280 nm, ΔF(area) 334-348 nm; read-out: KD for nucleotide ligands on CRP. Here is the method:
Figure 1 Binding of ppGpp to CRP determined by fluorescence spectroscopy. (a) The fluorescence Spectra of CRP in the presence of ppGpp. Following excitation at 280 nm, the emission spectra of CRP (2 µM) were recorded at 25 °C. (b) The fluorescence change (ΔF(area)) against ppGpp concentrations. Instead of using the fluorescence change at a fixed wavelength, the area below the spectra between 334 and 348 nm was used, and the area decrease (ΔF(area)) upon addition of ppGpp was utilized to calculate the extent of fluorescence quenching.
(§1) Fluorescence intensities were measured at 25 °C using a F-4500 Fluorescence Spectrophotometer (Hitachi corporation). H-NS and CRP in 50 mM MOPS buffer, pH 7.5 were excited at 280 nm and the emission spectra were recorded from 290 to 400 nm under various ligand concentrations. The dissociation constant, KD, was calculated using the equation, ΔF/ΔFM = (([L] + [P] + KD) − (([L] + [P] + KD)^2 − 4·[L]·[P])^0.5)/2·[P], where ΔF, ΔFM, [P], and [L] represent fluorescence change, the maximal fluorescence change, total protein concentration, and total ligand concentration, respectively. The area below the spectra in the 15 nm ranges was used to calculate ΔF in this study. The corrections for the inner filter effect, introduced by the ligands, was performed using the formula, Fcor = F × 10^(P + ΔA)/2, where F and Fcor denote fluorescence intensity before and after the correction, whereas P and ΔA indicate the initial sample absorption at the excitation wavelength and the change in absorption introduced by ligands, respectively.

Series [2] has as its target T2, histone-like nucleoid structuring protein (H-NS) (Escherichia coli, UniProt P0ACF8).
T2 construct: inferred from Ni-NTA/imidazole purification; made in house; host or cells: E. coli BL21 (DE3); over-expressing strain obtained from Dr. Hyon E. Choy, originally from Dr. Bremer's laboratory
Put plainly: biochemical. It is filed as binding. The protocol:
Figure 3 Determination of the dissociation constant KD for ppGpp on H-NS by fluorescence spectrometry. (a) The emission spectra of H-NS in the presence of ppGpp. While H-NS (10µM) was excited at 280 nm, the emission spectra in the presence of various concentrations of ppGpp were recorded at 25 °C. (b) The difference in fluorescence (ΔF(area)) between 322 and 336 nm against ppGpp concentrations.
as §1

Series [3] deals with the molecule itself. Put plainly: SEC; size exclusion chromatography of isolated CRP, single peak; data not shown. On the technique in general: Size exclusion chromatography separates by hydrodynamic size, large species first.
The mark [4] stands for this setting: H-NS 10 µM, 25 °C, 50 mM MOPS pH 7.5, excitation 280 nm, ΔF(area) 322-336 nm, read-out: KD for nucleotide ligands on H-NS.

T2 sequence (P0ACF8 whole entry): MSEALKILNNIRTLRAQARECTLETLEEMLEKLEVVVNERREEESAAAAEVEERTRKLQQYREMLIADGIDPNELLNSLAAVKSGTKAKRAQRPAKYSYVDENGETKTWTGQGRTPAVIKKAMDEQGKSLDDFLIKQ

As to `Nc1ncnc2c1ncn2[C@@H]1O[C@H](COP(=O)(O)OP(=O)(O)OP(=O)(O)O)[C@@H](O)[C@H]1O` [ATP], in series [1], the Kd (commonly a measure of binding affinity in units of concentration) stood at 33 ± 4 µM. Moreover, in series [2] (H-NS 10 µM, 25 °C, 50 mM MOPS pH 7.5, excitation 280 nm, ΔF(area) 322-336 nm), the “KD for nucleotide ligands on H-NS” value was “does not show a saturation curve; also recorded: did not show a saturation curve”.
In the case of `Nc1nc2c(ncn2[C@@H]2O[C@H](COP(=O)(O)OP(=O)(O)O)[C@@H](O)[C@H]2O)c(=O)[nH]1` [GDP], the Kd in series [1] was determined as 62 ± 4 µM; in series [2] (setting [4]), 72 ± 6 µM.
Consider `Nc1nc2c(ncn2[C@@H]2O[C@H](COP(=O)(O)OP(=O)(O)OP(=O)(O)O)[C@@H](O)[C@H]2O)c(=O)[nH]1` [GTP], for which the figures for the Kd in series [1] and in series [2] (setting [4]) were 35 ± 3 µM and 120 ± 25 µM, respectively.
`Nc1ncnc2c1ncn2[C@@H]1O[C@@H]2COP(=O)(O)O[C@H]2[C@H]1O` [cAMP]: the affinity in series [2], expressed as Kd, was 270 ± 40 µM.
With `Nc1nc2c(ncn2[C@@H]2O[C@@H]3COP(=O)(O)O[C@H]3[C@H]2O)c(=O)[nH]1` [cGMP], the dissociation constant Kd in series [1] amounted to 17 ± 1 µM.

B1: cyclic AMP receptor protein (CRP) from Escherichia coli (natural protein, E. coli K12 MG1655)
chain: MVLGKPQTDPTLEWFLSHCHIHKYPSKSTLIHQGEKAETLYYIVKGSVAVLIKDEEGKEMILSYLNQGDFIGELGLFEEGQERSAWVRAKTACEVAEISYKKFRQLIQVNPDILMRLSAQMARRLQVTSEKVGNLAFLDVTGRIAQTLLNLAKQPDAMTHPDGMQIKITRQEIGQIVGCSRETVGRILKMLEDQNLISAHGKTIVVYGTR
notes: cAMP receptor protein (CRP) of E. coli K12 MG1655; the gene was amplified by PCR from genomic DNA and cloned into pET21a(+) with NdeI and XhoI; About 24 kDa on SDS-PAGE; it is inferred from the vector and the Ni-NTA column; also called CAP; source: E. coli BL21 (DE3), pET21a(+), purified (Ni-NTA, desalting column)
For B1, the stoichiometry N (usually a count of units in the complex or per binding partner) in series [3] was found to be 2.
